One data set concerns the target Mnk1 (Homo sapiens (Human), UniProt Q9BUB5). In words: biochemical.
Another data set can be described thus: in vivo. The following applies: Balb/c, mouse, po, 10 mg/kg; for half-life: T½; for AUC(0-t): AUClast.
For data set [1] the following is noted: Balb/c, mouse, in vivo, po, 10 mg/kg.
Data set [2] can be described thus: Pharmacokinetics in Balb/c mice, single intravenous bolus administration. The format is in vivo. The following applies: intravenous bolus 1 mg/kg, gender F; for AUC(0-inf) / half-life / Vd: female, mouse, plasma; for AUC(0-inf): read-out: AUCINF_obs; for half-life: read-out: T½ (converted); for Vd: read-out: Vss.
Where [3] appears, read: formulation 10DMI/15EtOH/35PG/40Saline.
The mark [4] stands for this setting: formulation 10DMA/15EtOH/35PEG300/40D5W.
Where [5] appears, read: formulation 10DMI/15EtOH/35PG/40D5W.

Each structure is given as a SMILES string. pIC50: −log10 of the molar value. Counter-ions that a name gives are not always drawn. Like-named read-outs stand apart in the source and are kept apart here.

Mnk1, sequence (Q9BUB5 whole entry): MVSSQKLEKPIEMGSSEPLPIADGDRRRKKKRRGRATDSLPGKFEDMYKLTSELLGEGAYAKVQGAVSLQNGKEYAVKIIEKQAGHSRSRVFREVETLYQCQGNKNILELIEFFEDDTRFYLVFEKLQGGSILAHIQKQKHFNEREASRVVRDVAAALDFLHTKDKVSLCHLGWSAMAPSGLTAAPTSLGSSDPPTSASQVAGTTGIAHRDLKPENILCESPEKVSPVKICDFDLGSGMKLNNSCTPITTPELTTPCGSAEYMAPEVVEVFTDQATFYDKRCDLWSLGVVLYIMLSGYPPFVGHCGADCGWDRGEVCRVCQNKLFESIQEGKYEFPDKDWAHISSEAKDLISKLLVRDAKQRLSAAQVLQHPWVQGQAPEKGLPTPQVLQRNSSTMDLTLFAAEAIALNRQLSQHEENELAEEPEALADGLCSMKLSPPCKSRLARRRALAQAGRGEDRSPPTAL

As usually defined, the pIC50 is the IC50 on a negative log10 scale, so that one unit is a factor of ten. Low readings indicate a large IC50, high ones a small IC50. As usually defined, the Cmax is the highest concentration seen after dosing. In general, Tmax refers to the time from dosing to the highest level. The compound `Cl.Cl.Nc1cc(Nc2cc(Cl)c3n(c2=O)C2(CCNCC2)NC3=O)ncn1` [Cpd. No. 108, 6-((6-aminopyrimidin-4-yl)amino)-8-chloro-2H-spiro[imidazo[1,5-a]pyridine-3,4′-piperidine]-1,5-dione dihydrochloride] showed a pIC50 on Mnk1 above 8.00. Further, in “in vivo” (female), the Cmax was 44 ng/mL, the Tmax is 0.3 h and the half-life is 0.3 h.

Take `O=C1NC2(CCNC2)n2c1ccc(Nc1ccncn1)c2=O` (stereo not drawn) [Cpd. No. 26, 6-(pyrimidin-4-ylamino)-1H-spiro[imidazo[1,5-a]pyridine-3,3′-pyrrolidine]-1,5(2H)-dione]: the pIC50 on Mnk1 was 7.00 to 8.00.

Broadly, the AUC(0-t) is the area under the concentration-time curve up to a stated or last time point. A high value points to high exposure. In data set [1] (female), `CC1(C)NC(=O)c2ccc(Nc3cc(NC(=O)C4CC4)ncn3)c(=O)n21` [Cpd. No. 10, N-(6-((3,3-dimethyl-1,5-dioxo-1,2,3,5-tetrahydroimidazo[1,5-a]pyridin-6-yl)amino)pyrimidin-4-yl)cyclopropanecarboxamide] yielded a Tlast of 8 h. This compound yielded a Tlast in data set [1] (male) of 24 h. In data set [2] (setting [3]), the AUC(0-inf) amounted to 396 ng·h/mL, the half-life is 2.8 h, the Vd came to 5.45 L/kg and the Cl_obs amounted to 42.1 mL/min/kg. In “in vivo” (female), the AUC(0-t) came to 6420 ng·h/mL, the peak level (Cmax) was 1720 ng/mL, the Tmax was found to be 0.5 h and the half-life was 1.87 h. In the data set “in vivo” (male), the AUC(0-t) was determined as 8750 ng·h/mL, the Cmax was determined as 2160 ng/mL, the Tmax amounted to 1 h and the half-life was 4.22 h.

Turning to `Nc1cc(Nc2cc(Cl)c3n(c2=O)C2(CCc4ccc(Cl)cc42)NC3=O)ncn1` (stereo not drawn) [Cpd. No. 111, 6-[(6-aminopyrimidin-4-yl)amino]-6′,8-dichloro-spiro[2H-imidazo[1,5-a]pyridine-3,1′-indane]-1,5-dione hydrochloride], the pIC50 against Mnk1 was above 8.00.

`CC(C)(C)C1(C)NC(=O)c2c(Cl)cc(Nc3cc(N)ncn3)c(=O)n21` (stereo not drawn) [Cpd. No. 105, 6-[(6-aminopyrimidin-4-yl)amino]-3-tert-butyl-8-chloro-3-methyl-2H-imidazo[1,5-a]pyridine-1,5-dione hydrochloride] had a pIC50 on Mnk1 above 8.00.

In data set [1] (female), `CC1(c2cccc(Cl)c2)NC(=O)c2c(Cl)cc(Nc3cc(NC(=O)C4CC4)ncn3)c(=O)n21` (stereo not drawn) [Cpd. No. 51, N-[6-[[8-chloro-3-(3-chlorophenyl)-3-methyl-1,5-dioxo-2H-imidazo[1,5-a]pyridin-6-yl]amino]pyrimidin-4-yl]cyclopropanecarboxamide] displayed an AUClast of 35800 ng·h/mL, a Tlast of 24 h and a T½ of 8.36 h. In addition, in data set [2] (setting [3]), the AUC(0-inf) came out at 2500 ng·h/mL, the half-life is 5.78 h, the Vd is 2.79 L/kg and the Cl_obs is given as 6.66 mL/min/kg. In the data set “in vivo” (female), this compound had an AUC(0-t) of 31300 ng·h/mL, a Cmax of 3160 ng/mL and a half-life of 7.38 h.

Regarding `Cc1cc(Nc2cc(N)ncn2)c(=O)n2c1C(=O)NC21CCCC1.Cl` [Cpd. No. 98, 6-[(6-aminopyrimidin-4-yl)amino]-8-methyl-spiro[2H-imidazo[1,5-a]pyridine-3,1′-cyclopentane]-1,5-dione hydrochloride], the Tlast in data set [1] (female) is reported as 8 h. Further, in data set [2] (setting [4]), the AUC(0-inf) was 358 ng·h/mL, the half-life was 1.79 h, the Vd amounted to 3.56 L/kg and the Cl_obs came to 46.6 mL/min/kg. In “in vivo” (female), the AUC(0-t) was determined as 4180 ng·h/mL, the highest level (Cmax) was 1200 ng/mL, the Tmax is 0.3 h and the half-life was 3.1 h.

On Mnk1, `O=C1NC2(CNC2)n2c1c(Cl)cc(Nc1cc(NC(=O)C3CC3)ncn1)c2=O` [Cpd. No. 86, N-[6-[(8-chloro-1,5-dioxo-spiro[2H-imidazo[1,5-a]pyridine-3,3′-azetidine]-6-yl)amino]pyrimidin-4-yl]cyclopropanecarboxamide hydrochloride] had a pIC50 above 8.00.

At Mnk1, `Cc1cc(Nc2cc(N)ncn2)c(=O)n2c1C(=O)NC2(C)c1cccc(Cl)c1` (stereo not drawn) [Cpd. No. 92, 6-[(6-aminopyrimidin-4-yl)amino]-3-(3-chlorophenyl)-3,8-dimethyl-2H-imidazo[1,5-a]pyridine-1,5-dione] gave a negative logarithm of the IC50 (pIC50) above 8.00.

`CC1(C)NC(=O)c2c(Cl)cc(Nc3ncnc4cnccc34)c(=O)n21` [Cpd. No. 165, 8-chloro-3,3-dimethyl-6-(pyrido[3,4-d]pyrimidin-4-ylamino)-2,3-dihydroimidazo[1,5-a]pyridine-1,5-dione]: on Mnk1, the pIC50 was 7.00 to 8.00.

`Cc1cc(Nc2cc(N)ncn2)c(=O)n2c1C(=O)NC2(C)c1cccc(F)c1` (stereo not drawn) [Cpd. No. 101, 6-((6-aminopyrimidin-4-yl)amino)-3-(3-fluorophenyl)-3,8-dimethyl-2,3-dihydroimidazo[1,5-a]pyridine-1,5-dione]: the pIC50 at Mnk1 was above 8.00.

In turn, `CC1(c2cc(Cl)cc(Cl)c2)NC(=O)c2ccc(Nc3ccncn3)c(=O)n21` (stereo not drawn) [Cpd. No. 33, 3-(3,5-dichlorophenyl)-3-methyl-6-(pyrimidin-4-ylamino)-2,3-dihydroimidazo[1,5-a]pyridine-1,5-dione] gave a pIC50 on Mnk1 of 7.00 to 8.00.

The compound `O=c1c(Nc2ccncn2)ccc2n1C1(CCCCC1)NC2=S` [Cpd. No. 131, 6′-(pyrimidin-4-ylamino)-1′-thioxo-1′,2′-dihydro-5′H-spiro[cyclohexane-1,3′-imidazo[1,5-a]pyridin]-5′-one] showed a pIC50 against Mnk1 of 7.00 to 8.00.

With `Nc1cc(Nc2cc(Cl)c3n(c2=O)C2(CCCCC2)NC3=O)ncn1` [Cpd. No. 70, 6′-((6-aminopyrimidin-4-yl)amino)-8′-chloro-2′H-spiro[cyclohexane-1,3′-imidazo[1,5-a]pyridine]-1′,5′-dione], in data set [1] (female), the AUClast is 2010 ng·h/mL, the Tlast amounted to 8 h and the T½ turned out to be 3.74 h. In data set [2] (setting [5]), the AUC(0-inf) came out at 333 ng·h/mL, the half-life was 0.561 h, the Vd was found to be 1.8 L/kg and the Cl_obs is 50.1 mL/min/kg. Further, in the data set “in vivo” (female), the AUC(0-t) is 1470 ng·h/mL, the Cmax was 983 ng/mL, the Tmax amounted to 0.25 h and the half-life is 2 h.

In turn, `Cc1cc(Nc2cc(N)ncn2)c(=O)n2c1C(=O)NC21CCC(F)(F)CC1` [Cpd. No. 103, 6-[(6-aminopyrimidin-4-yl)amino]-4′,4′-difluoro-8-methyl-spiro[2H-imidazo[1,5-a]pyridine-3,1′-cyclohexane]-1,5-dione hydrochloride] gave a pIC50 against Mnk1 above 8.00.

`Cc1cc(Nc2cc(N)ncn2)c(=O)n2c1C(=O)NC21CCCN(C)C1` (stereo not drawn) [Cpd. No. 170, 6-[(6-aminopyrimidin-4-yl)amino]-1′,8-dimethyl-spiro[2H-imidazo[1,5-a]pyridine-3,3′-piperidine]-1,5-dione] had a pIC50 against Mnk1 above 8.00.

The compound `CC1(c2cc(F)cc(Cl)c2)NC(=O)c2ccc(Nc3ccncn3)c(=O)n21` (stereo not drawn) [Cpd. No. 28, 3-(3-chloro-5-fluorophenyl)-3-methyl-6-(pyrimidin-4-ylamino)-2,3-dihydroimidazo[1,5-a]pyridine-1,5-dione] showed a negative-log IC50 (pIC50) against Mnk1 of 7.00 to 8.00.

The values above are taken from patent publication US9669031B2, “MNK inhibitors and methods related thereto” (eFFECTOR Therapeutics, Inc., priority 2014, dated 2017).
